Measured values taken from the supplement of paper PMC8671470.

How the values were obtained:
Details in all cases: 72 h
KU-812 [1] = assay: cell viability (% survival relative to DMSO control, bortezomib = 0%); higher = less cytotoxic
Outline: (§1)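 After 72 h at 37 °C with 5% CO2, cell viability in 384-well plates was measured by CellTiter-Glo luminescence. The plates held compounds pre-printed at 1, 10, 100, 1000 or 10000 nM in duplicate, and cells from 10 AML and 5 CML lines seeded at densities titrated to linear growth. Percent survival is the duplicate mean, normalised to vehicle as 100% and a 10 µM positive control as 0%.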

LAMA-84 [2] = assay: as above
Outline: as §1

NOMO-1 [3] = assay: as above
Outline: as §1

BV-173 [4] = assay: as above
Outline: as §1

MV4-11 [5] = assay: as above
Outline: as §1

K-562 [6] = assay: as above
Outline: as §1

KG-1 [7] = assay: as above
Outline: as §1

ML-2 [8] = assay: as above
Outline: as §1

KCL-22 [9] = assay: as above
Outline: as §1

THP-1 [10] = assay: as above
Outline: as §1

HL-60 [11] = assay: as above
Outline: as §1

MOLM-13 [12] = assay: as above
Outline: as §1

HL-60 [13] = assay: cell viability (% survival relative to DMSO control); higher = less cytotoxic
Outline: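 For each screen, HL-60 cells in RPMI 1640 with 10% FBS carried either DMSO or 100 nM of one of three metabolic inhibitors while the full library was applied at five tenfold concentrations, 1–10,000 nM, in duplicate. Plates were 384-well and were kept 72 h at 37 °C, 5% CO2. Viability, measured by CellTiter-Glo, was normalised to wells with DMSO and with 10 μM proteasome inhibitor. Where area under the curve appears, it was fitted by four-parameter log-logistic models in drc and PharmacoGx.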

HEL = system: HEL
Outline: (§2)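 The IC50 was derived from log-logistic dose–response fitting. Each of fifteen myeloid leukaemia cell lines, seeded in RPMI 1640 within its linear growth range, was exposed in 384-well plates to five tenfold doses (1 to 10,000 nM) in duplicate for 72 h at 37 °C and 5% CO2. Luminescent ATP viability readings were normalised to vehicle and to a positive control at 10 µM before four-parameter curve fitting.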

KU-812 [14] = system: KU-812
Outline: as §2

SHI-1 = system: SHI-1
Outline: as §2

LAMA-84 [15] = system: LAMA-84
Outline: as §2

NOMO-1 [16] = system: NOMO-1
Outline: as §2

Mono-Mac-6 = system: Mono-Mac-6
Outline: as §2

BV-173 [17] = system: BV-173
Outline: as §2

MV4-11 [18] = system: MV4-11
Outline: as §2

K-562 [19] = system: K-562
Outline: as §2

KG-1 [20] = system: KG-1
Outline: as §2

ML-2 [21] = system: ML-2
Outline: as §2

KCL-22 [22] = system: KCL-22
Outline: as §2

THP-1 [23] = system: THP-1
Outline: as §2

HL-60 [24] = system: HL-60
Outline: as §2

MOLM-13 [25] = system: MOLM-13
Outline: as §2

CCN(CC)CCCC(C)Nc1ccnc2cc(Cl)ccc12 (stereo not given) [Chloroquine]
cell viability [%]
Details | 1 nM | 10 nM | 100 nM | 1000 nM | 10000 nM
BV-173 [4] | 111 | 89.5 | 111 | 97.1 | 85.2
HL-60 [11] | 101 | 79.8 | 97.1 | 101 | 76.4
K-562 [6] | 101 | 111 | 105 | 103 | 86.3
KCL-22 [9] | 95.6 | 106 | 100 | 95.7 | 102
KG-1 [7] | 112 | 101 | 89.7 | 102 | 88.1
KU-812 [1] | 109 | 97.8 | 102 | 98.1 | 96.9
LAMA-84 [2] | 105 | 101 | 101 | 101 | 99.1
ML-2 [8] | 108 | 98.7 | 97 | 100 | 94
MOLM-13 [12] | 103 | 81.8 | 112 | 107 | 101
MV4-11 [5] | 108 | 93.7 | 105 | 104 | 90.5
NOMO-1 [3] | 110 | 99.3 | 97.9 | 96.2 | 93.7
THP-1 [10] | 108 | 101 | 101 | 98.7 | 98.5

cell viability [%], HL-60 [13]
Details | 0.001 µM | 0.01 µM | 0.1 µM | 1 µM | 10 µM
co-treatment: AZD3965 100 nM | 102 | 87.5 | 107.4 | 104 | 97.5
co-treatment: DMSO vehicle | 104 | 91.3 | 102.4 | 106 | 99.7
co-treatment: GSK2194069 100 nM | 102.2 | 77.2 | 98.3 | 102 | 89.7
co-treatment: pictilisib 100 nM | 96.1 | 67.7 | 104 | 103.8 | 100

Details | IC50 (cell viability) [µM]
BV-173 [17] | > 10
HEL | > 10
HL-60 [24] | > 10
K-562 [19] | > 10
KCL-22 [22] | > 10
KG-1 [20] | > 10
KU-812 [14] | > 10
LAMA-84 [15] | > 10
ML-2 [21] | > 10
MOLM-13 [25] | > 10
MV4-11 [18] | > 10
Mono-Mac-6 | > 10
NOMO-1 [16] | > 10
SHI-1 | > 10
THP-1 [23] | > 10

Nc1nc(Cl)nc2c1ncn2[C@H]1C[C@H](O)[C@@H](CO)O1 [Cladribine]
cell viability [%]
Details | 1 nM | 10 nM | 100 nM | 1000 nM | 10000 nM
BV-173 [4] | 128 | 4.77 | -0.0212 | 0.000225 | -0.197
HL-60 [11] | 108 | 88.3 | 26.6 | 1.62 | -0.177
K-562 [6] | 110 | 97.5 | 79.8 | 28.8 | 20.5
KCL-22 [9] | 114 | 111 | 68.9 | 15.6 | 7.11
KG-1 [7] | 101 | 105 | 102 | 9.9 | 5.04
KU-812 [1] | 112 | 101 | 53.3 | 16.5 | 5.32
LAMA-84 [2] | 112 | 100 | 51.1 | 5.53 | 1.72
ML-2 [8] | 117 | 100 | 85.5 | 7.04 | 2.51
MOLM-13 [12] | 100 | 87.2 | 4.48 | 0.607 | -0.282
MV4-11 [5] | 129 | 81 | -0.607 | -0.0489 | -0.0474
NOMO-1 [3] | 111 | 101 | 21.5 | 1.41 | 0.34
THP-1 [10] | 102 | 93.7 | 102 | 24.2 | 26.3

cell viability [%], HL-60 [13]
Details | 0.001 µM | 0.01 µM | 0.1 µM | 1 µM | 10 µM
co-treatment: AZD3965 100 nM | 100 | 104 | 67.648 | 3.68 | 3.27
co-treatment: DMSO vehicle | 101 | 104 | 88.9 | 3.39 | 4.06
co-treatment: GSK2194069 100 nM | 98.2 | 101 | 62.7 | 3.78 | 4.3
co-treatment: pictilisib 100 nM | 98.9 | 102 | 37.1 | 3.81 | 3.84

Details | IC50 (cell viability) [µM]
BV-173 [17] | 0.00438
HEL | 0.0335
HL-60 [24] | 0.0471
K-562 [19] | 0.219
KCL-22 [22] | 0.142
KG-1 [20] | 0.384
KU-812 [14] | 0.0989
LAMA-84 [15] | 0.0992
ML-2 [21] | 0.238
MOLM-13 [25] | 0.0253
MV4-11 [18] | 0.0202
Mono-Mac-6 | 0.0212
NOMO-1 [16] | 0.0529
SHI-1 | 0.0439
THP-1 [23] | 0.358

NCCCC(N)(C(=O)O)C(F)F (stereo not given) [Difluoromethylornithine]
cell viability [%]
Details | 1 nM | 10 nM | 100 nM | 1000 nM | 10000 nM
BV-173 [4] | 97.1 | 91.2 | 96.8 | 95.2 | 105
HL-60 [11] | 93.6 | 123 | 98.7 | 88.8 | 99.5
K-562 [6] | 99.3 | 104 | 97 | 107 | 126
KCL-22 [9] | 111 | 84.4 | 88.1 | 95 | 101
KG-1 [7] | 96.1 | 88.8 | 90.8 | 95.1 | 105
KU-812 [1] | 116 | 96.2 | 83.1 | 99.3 | 105
LAMA-84 [2] | 107 | 99.2 | 91.8 | 102 | 110
ML-2 [8] | 93.5 | 79.1 | 93.4 | 92.1 | 96.5
MOLM-13 [12] | 87.2 | 103 | 93.3 | 107 | 101
MV4-11 [5] | 93.8 | 98.9 | 81.3 | 85.5 | 109
NOMO-1 [3] | 99.5 | 91.5 | 102 | 95.6 | 99.7
THP-1 [10] | 96.5 | 95.6 | 98.9 | 100 | 104

cell viability [%], HL-60 [13]
Details | 0.001 µM | 0.01 µM | 0.1 µM | 1 µM | 10 µM
co-treatment: AZD3965 100 nM | 105 | 100.5 | 100 | 93.5 | 96.8
co-treatment: DMSO vehicle | 103 | 97.01 | 104 | 101 | 103
co-treatment: GSK2194069 100 nM | 101 | 98.8 | 104 | 95.6 | 101
co-treatment: pictilisib 100 nM | 100 | 92.3 | 97.2 | 92.6 | 94.6

Details | IC50 (cell viability) [µM]
BV-173 [17] | > 10
HEL | > 10
HL-60 [24] | > 10
K-562 [19] | > 10
KCL-22 [22] | > 10
KG-1 [20] | > 10
KU-812 [14] | > 10
LAMA-84 [15] | > 10
ML-2 [21] | > 10
MOLM-13 [25] | > 10
MV4-11 [18] | > 10
Mono-Mac-6 | > 10
NOMO-1 [16] | > 10
SHI-1 | > 10
THP-1 [23] | > 10
